The structures appear in SMILES notation.

Assay [1] relates to monocyte-derived cytokines. Put plainly: monocyte-derived cytokines in supernatants of HMO-pretreated PBMCs with or without RSV. It is filed as cell-based, human. As to the method: (§1) Specifically, either 3′SL or 6′SL is added, at concentrations of 0.1 mg/mL, 0.2 mg/mL, or 0.5 mg/mL to fresh peripheral blood mononuclear cells (PBMCs) and incubated at 37° C. in 5% CO2 to pretreat the cells for approximately 24 hours. LNnT is added, at concentrations of 0.1 mg/mL, 0.2 mg/mL, or 1 mg/mL to PBMCs and incubated at 37° C. in 5% CO2 to pretreat the cells for approximately 24 hours. Lactose is included as a carbohydrate control. Matched endotoxin unit concentration controls are included to allow differentiation of ingredient effects from inherent low levels of endotoxin. Some variables are then incubated with RSV at a multiplicity of infection (MOI) of 0.1 for approximately 1 hour at 37° C. in 5% in CO2. Uninfected control variables are incubated with medium for approximately 1 hour at 37° C. in 5% CO2. After approximately one hour, fresh medium alone, or fresh medium containing the appropriate concentration of 3′SL, 6′SL, LNnT, lactose, or endotoxin is added to the appropriate tubes and the cells are incubated for 48 hours at 37° C. in 5% CO2. Supernatants are collected at 24 and 48 hours post-infection. Cytokines are measured in supernatants for each variable at 24 and 48 hours to assess the effects of HMOs on the early immune response to RSV. Cytokines are measured using custom Bio-Plex Human cytokine kits from Bio-Rad.

Assay [2] deals with H1N1 influenza virus. It is filed as cell-based. To be noted: 10 mg/mL HMO; MDCK cells; FIG. 1.
For the next assay, the system named is interleukin 10 (IL-10). The experiment in a line: IL-10 in supernatants of HMO-pretreated PBMCs with or without RSV. It is filed as cell-based, human. To be noted: PBMCs in the presence or absence of RSV; FIGS. 7-10. How it is done: as §1
The subject of assay [3] is H1N1 influenza virus. It is filed as cell-based. To be noted: for IC50 (mg HMO/mL) H1N1 Influenza: HMOs added at 1 mg/mL or 10 mg/mL, virus dose about 500-1,000 units/mL.
Assay [4] has as its system respiratory syncytial virus (RSV). It is filed as cell-based. To be noted: HMOs added at 1 mg/mL or 10 mg/mL; virus dose about 500-1,000 units/mL.
In assay [5] the test system is human parainfluenza virus (HPIV3). It is filed as cell-based. To be noted: HMOs added at 1 mg/mL or 10 mg/mL; virus dose about 500-1,000 units/mL.
For a further assay, the system named is IP-10. Put plainly: IP-10 in supernatants of HMO-pretreated, RSV-infected PBMCs. It is filed as cell-based, human. The note with it: for IP-10 in virus-infected variables: RSV MOI 0.1, 24 h pretreatment, both donors, FIGS. 3-6; for IP-10 in virus-infected variables / reducing inflammation caused by RSV: PBMCs; for reducing inflammation caused by RSV: pretreatment for 24 hours. How it is done: as §1
IP-10 is a CXC chemokine that attracts, binds to and activates the CXCR3 receptor on natural killer cells and memory T cells. IP-10 is expressed by monocytes and a number of other cells, and is induced by interferon. A positive correlation exists between RSV clinical disease severity in children (as measured by: length of hospital stay, fever, and number of days supplemental O2 is required) and serum IP-10. Therefore, a decrease in IP-10 signals a decrease in severity of RSV disease experienced.

[6] abbreviates: PBMCs in the presence or absence of the virus.

`CC(=O)N[C@H]1[C@H]([C@H](O)[C@H](O)CO)O[C@@](OC[C@H]2O[C@@H](O[C@H]3[C@H](O)[C@@H](O)[C@H](O)O[C@@H]3CO)[C@H](O)[C@@H](O)[C@H]2O)(C(=O)O)C[C@@H]1O` [6′SL, 6′-sialyllactose]: in assay [1] (PBMCs in the absence of the virus), the “production of monocyte-derived cytokines (immunomodulatory)” value (“production of monocyte-derived cytokines” below) is “induces and/or modifies the production of monocyte-derived cytokines such as IL-10, MIP-1β, Interferon-γ, IL-8, IL-1α, IL-1β, and IL-1ra”. Moreover, the “inhibition of virus infectivity” value in the assay on H1N1 influenza virus [2] is listed as “approximately 60%”. The IL-10 concentration result in the assay on interleukin 10 (IL-10) is listed as “increases interleukin 10 (IL-10) concentration in a dose-dependent manner”. For the same molecule, the “IC50 (mg HMO/mL) H1N1 Influenza” value with H1N1 influenza virus [3] is on record as around 10 mg HMO/mL. Besides, the “IC50 (mg HMO/mL) RSV” value in assay [4] is listed as above 10 mg HMO/mL. For the same molecule, the “IC50 (mg HMO/mL) HPIV3” value in assay [5] was above 10 mg HMO/mL. Moreover, in the assay with IP-10, the “IP-10 in virus-infected variables” value is “downregulates IP-10” and the “reducing inflammation caused by RSV” value is reported as “effective”. Moreover, in the assay on IP-10 (RSV-infected PBMCs), the “IP-10 level compared with uninfected controls” value is on record as “reduce IP-10 to levels found in uninfected controls” and the “downregulation of IP-10 compared with 3′SL” value was “more effective than 3′SL”.

On to `CC(=O)N[C@H]1[C@H]([C@H](O)[C@H](O)CO)O[C@@](O[C@H]2[C@@H](O)[C@@H](CO)O[C@@H](O[C@H]3[C@H](O)[C@@H](O)C(O)O[C@@H]3CO)[C@@H]2O)(C(=O)O)C[C@@H]1O` (stereo partly drawn) [3′SL, 3′-sialyllactose], for which the “production of monocyte-derived cytokines” value in assay [1] (setting [6]) is “induces and/or modifies the production of monocyte-derived cytokines such as MIP-1β, Interferon-γ, IL-8, and IL-1ra”. Further, the “anti-viral activity against H1N1 influenza virus” value in the assay with H1N1 influenza virus [3] (HMO at 1 mg/mL) is recorded as “inhibited”. Also, the “IC50 (mg HMO/mL) H1N1 Influenza” value in the assay on H1N1 influenza virus [3] is listed as around 5 mg HMO/mL. For the same molecule, in assay [4], the “IC50 (mg HMO/mL) RSV” value is above 10 mg HMO/mL. Besides, in assay [5], the “IC50 (mg HMO/mL) HPIV3” value is above 10 mg HMO/mL. In addition, in the assay with IP-10, the “IP-10 in virus-infected variables” value is listed as “dampen RSV-induced IP-10” and the “reducing inflammation caused by RSV” value is on record as “effective”. In addition, the “RSV-induced IP-10, Donor B” value in the assay on IP-10 (RSV-infected PBMCs, Donor B, 0.1-0.5 mg/mL) is “not effective”. The “RSV-induced IP-10, Donor E” value in the assay with IP-10 (RSV-infected PBMCs, Donor E, 0.1-0.5 mg/mL) is reported as “downregulates RSV-induced IP-10”.

For the molecule `CC(=O)N[C@H]1[C@H](O[C@H]2[C@@H](O)[C@@H](CO)O[C@@H](O[C@H]3[C@H](O)[C@@H](O)C(O)O[C@@H]3CO)[C@@H]2O)O[C@H](CO)[C@@H](O[C@@H]2O[C@H](CO)[C@H](O)[C@H](O)[C@H]2O)[C@@H]1O` (mixture of isomers) [LNnT, lacto-N-neotetraose], the “production of monocyte-derived cytokines” value in assay [1] (setting [6]) was “induces and/or modifies the production of monocyte-derived cytokines such as IL-10, MIP-1β, Interferon-γ, IL-8, IL-1α, IL-1β, and IL-1ra”. The IL-10 concentration result in the assay on interleukin 10 (IL-10) is listed as “increases IL-10 concentration in a dose-dependent manner”. In addition, the “IC50 (mg HMO/mL) H1N1 Influenza” value in the assay with H1N1 influenza virus [3] is reported as above 10 mg HMO/mL. Besides, the “IC50 (mg HMO/mL) RSV” value in assay [4] is recorded as above 10 mg HMO/mL. In the assay with IP-10, the “IP-10 in virus-infected variables” value was “clearly downregulates IP-10” and the “reducing inflammation caused by RSV” value is on record as “effective”. Moreover, in the assay on IP-10 (RSV-infected PBMCs), the “IP-10 level compared with uninfected controls” value is reported as “reduce IP-10 to levels found in uninfected controls” and the “downregulation of IP-10 compared with 3′SL” value is given as “more effective than 3′SL”.

The record behind these values is patent publication US11311562B2, “Methods for reducing the incidence of oxidative stress using human milk oligosaccharides, vitamin c and anti-inflammatory agents” (priority 2010, dated 2022).
